Test results taken from patent publication US12479847B2 (DANA-FARBER CANCER INSTITUTE, INC., priority 2019, dated 2025).

Key:
Test in all cases: KINOMEscan (ScanMAX) kinase profiling
Format in all cases: binding
panel of 468 kinases [1] = target: T1, panel of 468 kinases (Homo sapiens, UniProt P27037); conditions: ACVR2A; 1 μM; read-out: % control
T1 construct: purchased KINOMEscan (ScanMAX) service

panel of 468 kinases [2] = target: T2, panel of 468 kinases (Homo sapiens, UniProt P52333); conditions: JAK3(JH1domain-catalytic); 1 μM; read-out: % control
T2 construct: purchased KINOMEscan (ScanMAX) service
T2 sequence (P52333 1-1124): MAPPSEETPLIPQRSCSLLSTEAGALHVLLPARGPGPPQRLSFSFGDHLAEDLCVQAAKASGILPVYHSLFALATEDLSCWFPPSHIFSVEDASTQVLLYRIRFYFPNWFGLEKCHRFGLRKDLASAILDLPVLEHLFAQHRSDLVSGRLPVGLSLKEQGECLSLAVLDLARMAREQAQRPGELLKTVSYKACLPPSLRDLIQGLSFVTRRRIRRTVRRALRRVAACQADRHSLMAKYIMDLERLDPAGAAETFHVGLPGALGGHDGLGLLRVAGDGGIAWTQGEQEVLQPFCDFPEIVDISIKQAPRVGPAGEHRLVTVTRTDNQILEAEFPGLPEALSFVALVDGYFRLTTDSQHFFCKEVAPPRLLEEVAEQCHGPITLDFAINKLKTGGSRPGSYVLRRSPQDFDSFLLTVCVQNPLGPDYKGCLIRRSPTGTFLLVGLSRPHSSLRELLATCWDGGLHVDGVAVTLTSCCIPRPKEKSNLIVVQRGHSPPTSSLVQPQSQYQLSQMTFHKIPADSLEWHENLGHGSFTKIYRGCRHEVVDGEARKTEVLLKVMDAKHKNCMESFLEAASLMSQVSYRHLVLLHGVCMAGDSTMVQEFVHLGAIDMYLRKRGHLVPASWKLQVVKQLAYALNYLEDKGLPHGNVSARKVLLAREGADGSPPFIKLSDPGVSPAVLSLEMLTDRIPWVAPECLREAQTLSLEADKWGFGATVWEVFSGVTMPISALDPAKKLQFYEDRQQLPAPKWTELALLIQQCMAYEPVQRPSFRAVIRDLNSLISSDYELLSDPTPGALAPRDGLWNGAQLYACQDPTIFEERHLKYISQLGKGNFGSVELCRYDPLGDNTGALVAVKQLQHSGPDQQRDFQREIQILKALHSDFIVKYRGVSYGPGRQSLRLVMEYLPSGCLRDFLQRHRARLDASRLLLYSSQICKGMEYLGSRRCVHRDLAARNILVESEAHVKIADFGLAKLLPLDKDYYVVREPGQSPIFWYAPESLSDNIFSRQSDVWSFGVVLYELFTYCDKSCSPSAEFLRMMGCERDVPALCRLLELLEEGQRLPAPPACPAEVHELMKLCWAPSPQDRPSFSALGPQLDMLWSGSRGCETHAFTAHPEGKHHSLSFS

panel of 468 kinases [3] = target: T3, panel of 468 kinases (Homo sapiens, UniProt Q5S007); conditions: LRRK2; 1 μM; read-out: % control
T3 construct: purchased KINOMEscan (ScanMAX) service

panel of 468 kinases [4] = target: T4, panel of 468 kinases (Homo sapiens, UniProt Q92918); conditions: HPK1; 1 μM; read-out: % control
T4 construct: purchased KINOMEscan (ScanMAX) service
T4 sequence (Q92918 whole entry): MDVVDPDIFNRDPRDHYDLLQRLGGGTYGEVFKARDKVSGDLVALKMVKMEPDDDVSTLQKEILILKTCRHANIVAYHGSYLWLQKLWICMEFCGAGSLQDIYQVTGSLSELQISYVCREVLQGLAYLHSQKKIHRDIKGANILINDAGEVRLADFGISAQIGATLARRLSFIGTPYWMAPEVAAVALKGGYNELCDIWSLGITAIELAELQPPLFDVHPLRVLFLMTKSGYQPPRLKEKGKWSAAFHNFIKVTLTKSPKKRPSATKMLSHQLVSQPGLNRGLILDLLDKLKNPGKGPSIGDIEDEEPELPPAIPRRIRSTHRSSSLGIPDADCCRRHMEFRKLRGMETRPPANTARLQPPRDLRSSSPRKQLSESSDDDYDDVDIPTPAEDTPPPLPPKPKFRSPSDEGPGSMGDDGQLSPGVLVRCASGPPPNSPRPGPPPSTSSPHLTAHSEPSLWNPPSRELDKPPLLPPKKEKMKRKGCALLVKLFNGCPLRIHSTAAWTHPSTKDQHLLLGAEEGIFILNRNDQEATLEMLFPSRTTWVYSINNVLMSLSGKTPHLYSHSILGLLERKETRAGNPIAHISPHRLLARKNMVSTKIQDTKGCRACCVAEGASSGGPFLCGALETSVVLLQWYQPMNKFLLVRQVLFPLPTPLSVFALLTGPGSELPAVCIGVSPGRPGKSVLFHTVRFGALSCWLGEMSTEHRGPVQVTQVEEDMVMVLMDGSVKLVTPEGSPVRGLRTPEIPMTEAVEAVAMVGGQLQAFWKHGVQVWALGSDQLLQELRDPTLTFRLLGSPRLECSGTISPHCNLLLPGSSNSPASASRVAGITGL

T1 sequence (P27037 20-513): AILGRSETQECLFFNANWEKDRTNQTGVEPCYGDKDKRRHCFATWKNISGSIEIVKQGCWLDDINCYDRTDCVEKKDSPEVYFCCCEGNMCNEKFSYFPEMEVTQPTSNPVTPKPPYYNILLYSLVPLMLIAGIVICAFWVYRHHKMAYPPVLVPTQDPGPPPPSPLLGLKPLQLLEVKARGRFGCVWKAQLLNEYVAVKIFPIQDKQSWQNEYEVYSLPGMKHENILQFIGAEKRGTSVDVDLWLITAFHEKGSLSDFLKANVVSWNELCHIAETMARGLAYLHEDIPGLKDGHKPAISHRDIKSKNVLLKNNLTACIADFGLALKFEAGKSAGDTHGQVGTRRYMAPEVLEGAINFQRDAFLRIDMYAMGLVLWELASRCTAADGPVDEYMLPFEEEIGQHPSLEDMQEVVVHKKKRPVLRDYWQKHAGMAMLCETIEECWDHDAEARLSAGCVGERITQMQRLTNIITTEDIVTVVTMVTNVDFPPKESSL
T3 sequence (Q5S007 whole entry): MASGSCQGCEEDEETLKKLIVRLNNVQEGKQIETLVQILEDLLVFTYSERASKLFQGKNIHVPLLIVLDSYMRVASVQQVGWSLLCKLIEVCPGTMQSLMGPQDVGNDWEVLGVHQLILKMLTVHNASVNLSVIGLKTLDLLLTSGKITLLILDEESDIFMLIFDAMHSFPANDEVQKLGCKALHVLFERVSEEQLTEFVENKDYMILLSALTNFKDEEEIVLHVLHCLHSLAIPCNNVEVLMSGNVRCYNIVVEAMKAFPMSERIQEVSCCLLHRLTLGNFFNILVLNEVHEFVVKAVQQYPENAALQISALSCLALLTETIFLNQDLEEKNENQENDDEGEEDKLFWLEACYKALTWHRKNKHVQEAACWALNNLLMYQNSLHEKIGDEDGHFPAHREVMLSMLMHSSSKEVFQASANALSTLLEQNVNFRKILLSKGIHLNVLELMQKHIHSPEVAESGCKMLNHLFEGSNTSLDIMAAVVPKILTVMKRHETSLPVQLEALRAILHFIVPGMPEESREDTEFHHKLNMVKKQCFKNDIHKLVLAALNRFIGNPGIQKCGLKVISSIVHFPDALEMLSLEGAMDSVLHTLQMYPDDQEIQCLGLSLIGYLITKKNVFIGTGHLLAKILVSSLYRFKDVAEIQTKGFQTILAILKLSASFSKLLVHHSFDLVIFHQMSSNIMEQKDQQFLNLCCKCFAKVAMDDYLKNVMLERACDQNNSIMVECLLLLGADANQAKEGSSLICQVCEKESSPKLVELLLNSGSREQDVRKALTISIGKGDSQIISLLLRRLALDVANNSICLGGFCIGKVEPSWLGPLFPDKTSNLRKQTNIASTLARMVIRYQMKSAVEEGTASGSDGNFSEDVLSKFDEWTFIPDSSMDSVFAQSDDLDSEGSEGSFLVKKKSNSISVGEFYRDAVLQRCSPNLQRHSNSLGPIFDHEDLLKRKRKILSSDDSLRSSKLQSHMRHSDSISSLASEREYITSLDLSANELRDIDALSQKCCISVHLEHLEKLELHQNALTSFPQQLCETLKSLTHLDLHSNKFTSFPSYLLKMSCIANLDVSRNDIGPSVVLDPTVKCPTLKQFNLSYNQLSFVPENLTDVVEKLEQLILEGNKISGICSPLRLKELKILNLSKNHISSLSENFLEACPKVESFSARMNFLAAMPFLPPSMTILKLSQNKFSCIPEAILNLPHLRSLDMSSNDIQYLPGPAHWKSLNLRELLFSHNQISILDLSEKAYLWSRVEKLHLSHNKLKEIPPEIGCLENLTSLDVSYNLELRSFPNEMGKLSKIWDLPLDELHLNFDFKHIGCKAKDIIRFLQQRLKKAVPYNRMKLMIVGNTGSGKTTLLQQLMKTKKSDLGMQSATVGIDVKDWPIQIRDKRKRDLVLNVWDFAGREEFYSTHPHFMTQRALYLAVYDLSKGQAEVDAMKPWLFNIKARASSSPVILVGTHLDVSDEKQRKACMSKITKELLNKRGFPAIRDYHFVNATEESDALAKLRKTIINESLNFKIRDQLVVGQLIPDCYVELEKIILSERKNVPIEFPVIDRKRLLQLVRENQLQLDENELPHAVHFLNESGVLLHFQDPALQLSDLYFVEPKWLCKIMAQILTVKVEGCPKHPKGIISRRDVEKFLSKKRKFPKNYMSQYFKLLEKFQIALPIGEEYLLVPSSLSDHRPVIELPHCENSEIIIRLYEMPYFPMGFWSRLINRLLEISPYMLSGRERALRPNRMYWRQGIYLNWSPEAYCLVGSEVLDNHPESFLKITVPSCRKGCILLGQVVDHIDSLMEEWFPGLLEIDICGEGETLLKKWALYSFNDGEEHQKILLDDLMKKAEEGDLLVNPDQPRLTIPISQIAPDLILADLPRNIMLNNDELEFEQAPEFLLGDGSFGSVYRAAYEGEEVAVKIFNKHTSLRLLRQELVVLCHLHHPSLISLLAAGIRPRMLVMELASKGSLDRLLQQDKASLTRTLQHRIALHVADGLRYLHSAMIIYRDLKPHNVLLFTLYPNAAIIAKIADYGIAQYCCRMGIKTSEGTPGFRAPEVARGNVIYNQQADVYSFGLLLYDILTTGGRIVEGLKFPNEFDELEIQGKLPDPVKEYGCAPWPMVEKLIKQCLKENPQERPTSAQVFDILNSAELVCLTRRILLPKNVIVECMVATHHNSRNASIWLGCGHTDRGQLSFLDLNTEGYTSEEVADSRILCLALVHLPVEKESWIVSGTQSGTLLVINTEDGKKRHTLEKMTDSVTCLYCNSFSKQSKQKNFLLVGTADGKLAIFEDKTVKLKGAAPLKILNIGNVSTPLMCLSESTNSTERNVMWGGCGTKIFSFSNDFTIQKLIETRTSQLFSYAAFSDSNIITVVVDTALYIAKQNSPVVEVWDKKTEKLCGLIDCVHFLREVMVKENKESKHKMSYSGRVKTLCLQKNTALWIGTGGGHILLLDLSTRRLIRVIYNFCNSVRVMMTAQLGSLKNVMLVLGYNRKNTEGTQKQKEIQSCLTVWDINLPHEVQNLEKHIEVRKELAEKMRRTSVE

SMILES | remaining binding at 1 µM (panel of 468 kinases [1]) [%] | remaining binding at 1 µM (panel of 468 kinases [2]) [%] | remaining binding at 1 µM (panel of 468 kinases [3]) [%] | remaining binding at 1 µM (panel of 468 kinases [4]) [%]
CNc1nc(Nc2ccc(S(=O)(=O)N3CCC(N4CCOCC4)CC3)cc2OC)nc2[nH]cc(Cl)c12 [Compound 12, 5-chloro-N2-(2-methoxy-4-((4-morpholinopiperidin-1-yl)sulfonyl)phenyl)-N4-methyl-7H-pyrrolo[2,3-d]pyrimidine-2,4-diamine] | 100 | 77 | 0.8 | 78
CNc1nc(Nc2ccc(P3(=O)CCN(C4CCOCC4)CC3)cc2OC)nc2[nH]cc(Cl)c12 [Compound 77, 4-(4-((5-chloro-4-(methylamino)-7H-pyrrolo[2,3-d]pyrimidin-2-yl)amino)-3-methoxyphenyl)-1-(tetrahydro-2H-pyran-4-yl)-1,4-azaphosphinane 4-oxide] | 100 | 86 | 0.4 | 97
CNc1nc(Nc2ccc(C(=O)N3CCC(N4CCOCC4)CC3)c3c2OCO3)nc2[nH]cc(Cl)c12 [Compound 75, (7-((5-chloro-4-(methylamino)-7H-pyrrolo[2,3-d]pyrimidin-2-yl)amino)benzo[d][1,3]dioxol-4-yl)(4-morpholinopiperidin-1-yl)methanone] | 100 | 25 | 1.4 | 47
